Results on 1 molecule are retold here after patent US5622498A, “Method for the treatment of periodontal disease by sustained delivery of a therapeutic agent to the periodontal pocket, composition of matter therefor and apparatus for the administration thereof” (priority 1993, dated 1997).

Series [1] deals with organisms associated with periodontal disease. The conditions noted are these: cited from earlier work.
For series [2] the following is noted: dog, in vivo.
Text: Pharmacokinetic investigation of minocycline-containing periodontal microcapsules was undertaken to produce a dosage form that could be administered to the periodontal pocket and that would yield minocycline concentrations exceeding the MIC's (0.05-1.56 mcg/ml) for organisms associated with periodontal disease for extended periods of time. Therefore, a study to evaluate four different minocycline periodontal formulations relative to determining minocycline levels in crevicular fluid was conducted in a dog model. The study utilized beagle dogs with surgically created "chronic" intrabony periodontal defects. […]
In sequence, the defects were created as follows: First, the lower fourth premolars were extracted, sockets were allowed to heal for one month, and dogs received a full mouth scaling and tooth cleaning. […] Dogs were monitored for an additional four weeks.
For evaluation of crevicular levels of minocycline, dogs were placed under general anesthesia, and the various formulations were administered into the periodontal pockets associated with the created defects. […] The strip was then removed, and the relative amount of fluid was determined by a Periotron 6000 instrument. […]
Samples of gingival fluid are collected as described above, and analyzed. […]
In series [3] the test system is gram-positive and gram-negative organisms. The conditions noted are these: cited from earlier work.

Take `CN(C)c1ccc(O)c2c1C[C@H]1C[C@H]3[C@H](N(C)C)C(O)=C(C(N)=O)C(=O)[C@@]3(O)C(O)=C1C2=O` [minocycline, 7-dimethylamino-6-deoxy-6-demethyltetracycline]: in series [1], the MIC is 0.05 to 1.56 µg/mL. Moreover, in series [2], the “period for which minimum inhibitory concentrations (MIC's) can be achieved” value is on record as “up to two”. The antibacterial activity result in series [3] was “activity against a wide range of gram-positive and gram-negative organisms”.
